Measured values reported in patent US20100113464A1, “NOVEL PYRIDAZINE DERIVATIVES” (SYNGENTA CROP PROTECTION, INC., priority 2006, published 2010).

Experiments:
[1] = system: Pyrenophora teres (Helminthosporium teres); assay: Pyrenophora teres (Helminthosporium teres)/Barley/Preventive (action against net blotch on barley); format: in vivo; details: 96 h, preventive spray, barley plants cv. Regina, assessed after 4 days incubation, untreated controls infected over 80%, read-out: inhibit fungal infestation
Method: Pyrenophora teres (Helminthosporium teres)/Barley/Preventive (Action Against Net Blotch on Barley) 1-week-old barley plants cv. Regina are treated with the formulated test compound in a spray chamber. Two days after application barley plants are inoculated by spraying a spore suspension (2.6×10^4 conidia/ml) on the test plants. After an incubation period of 4 days at 20° C. and 95% r.h. the disease incidence is assessed.

[2] = system: Uncinula necator; assay: Uncinula necator/Grape/Preventive (action against powdery mildew on grape); format: in vivo; details: Erysiphe necator, 168 h, preventive spray, grape seedlings cv. Gutedel, assessed after 7 days incubation, untreated controls infected over 80%, read-out: inhibit fungal infestation
Method: Uncinula necator/Grape/Preventive (Action Against Powdery Mildew on Grape) 5 weeks old grape seedlings cv. Gutedel are treated with the formulated test compound in a spray chamber. One day after application grape plants are inoculated by shaking plants infected with grape powdery mildew above the test plants. After an incubation period of 7 days at 24° C./22° C. and 70% r.h. under a light regime of 14/10 h (light/dark) the disease incidence is assessed.

[3] = system: Alternaria solani; assay: Alternaria solani/Tomato/Preventive (action against Alternaria on tomato); format: in vivo; details: 96 h, preventive spray, tomato plants cv. Roter Gnom, assessed after 4 days incubation, untreated controls infected over 80%, read-out: inhibit fungal infestation
Method: (§1) Alternaria solani/Tomato/Preventive (Action Against Alternaria on Tomato) 4 weeks old tomato plants cv. Roter Gnom are treated with the formulated test compound in a spray chamber. Two days after application tomato plants are inoculated by spraying a spore suspension on the test plants. After an incubation period of 4 days at 22° C./18° C. and 95% r.h. in a greenhouse the disease incidence is assessed.

[4] = system: Botrytis cinerea; assay: Botrytis cinerea/Tomato/Preventive (action against Botrytis on tomato); format: in vivo; details: 72 h, preventive spray, tomato plants cv. Roter Gnom, assessed after 3 days incubation, untreated controls infected over 80%, read-out: inhibit fungal infestation
Method: as §1, with “Botrytis cinerea/Tomato/Preventive (Action” for “Alternaria solani/Tomato/Preventive (Action”, “Against Botrytis” for “Against Alternaria”, “of 3” for “of 4”, “at 20°” for “at 22° C./18°”, “95% r. h.” for “95% r.h.”

[5] = system: Puccinia recondite; assay: Puccinia recondite/Wheat/Preventive (action against brown rust on wheat); format: in vivo; details: 264 h, preventive spray, wheat plants cv. Arina, assessed 11 days after inoculation, untreated controls infected over 80%, read-out: inhibits fungal infestation
Method: Puccinia recondite/Wheat/Preventive (Action Against Brown Rust on Wheat) 1 week old wheat plants cv. Arina are treated with the formulated test compound in a spray chamber. One day after application wheat plants are inoculated by spraying a spore suspension ([…] uredospores/ml) on the test plants. After an incubation period of 1 day at 20° C. and 95% r h. plants are kept for 10 days 20° C./18° C. (day/night) and 60% r.h. in a greenhouse. The disease incidence is assessed 11 days after inoculation.

[6] = system: Septoria tritici; assay: Septoria tritici/Wheat/Preventive (action against Septoria leaf spot on wheat); format: in vivo; details: Zymoseptoria tritici, preventive spray, wheat plants cv. Riband, assessed 16-18 days after inoculation, untreated controls infected over 80%, read-out: inhibits fungal infestation
Method: Septoria tritici/Wheat/Preventive (Action Against Septoria Leaf Spot on Wheat) 2 weeks old wheat plants cv. Riband are treated with the formulated test compound in a spray chamber. One day after application wheat plants are inoculated by spraying a spore suspension (10^6 conidia/ml) on the test plants. After an incubation period of 1 day at 22° C./21° C. and 95% r.h. plants are kept at 22° C./21° C. and 70% r.h. in a greenhouse. The disease incidence is assessed 16-18 days after inoculation.

[7] = system: Magnaporthe arisea (Pyricularia oryzae); assay: whole plant or invertebrate; format: in vivo; details: 144 h, read-out: inhibit fungal infestation

SMILES | inhibition at 200 ppm [1] [%] | inhibition at 200 ppm [2] [%] | inhibition at 200 ppm [3] [%] | melting point [°C] | inhibition at 200 ppm [4] [%] | inhibition at 200 ppm [5] [%] | inhibition at 200 ppm [6] [%] | inhibition at 200 ppm [7] [%]
COc1nnc(C)c(-c2cccs2)c1-c1c(F)cc(F)cc1F [I.h.199, 3-methoxy-6-methyl-5-thiophen-2-yl-4-(2,4,6-trifluorophenyl)-pyridazine] | ≥ 80 | ≥ 80 | ≥ 80 | 124 to 125 | ≥ 80 | ≥ 80 | ≥ 80 | ≥ 80
Cc1nnc(F)c(-c2c(F)cc(F)cc2F)c1-c1cccs1 [I.h.197, 3-fluoro-6-methyl-5-thiophen-2-yl-4-(2,4,6-trifluorophenyl)-pyridazine] | ≥ 80 | – | ≥ 80 | 71 to 74 | ≥ 80 | ≥ 80 | ≥ 80 | ≥ 80
Cc1nnc(Cl)c(-c2c(F)cc(F)cc2F)c1-c1cccs1 [I.h.198, 3-chloro-6-methyl-5-thiophen-2-yl-4-(2,4,6-trifluorophenyl)-pyridazine] | ≥ 80 | ≥ 80 | ≥ 80 | 90 to 92 | ≥ 80 | ≥ 80 | ≥ 80 | ≥ 80
Cc1nnc(C)c(-c2c(F)cc(F)cc2F)c1-c1cccs1 [I.h.200, 3,6-dimethyl-4-thiophen-2-yl-5-(2,4,6-trifluorophenyl)-pyridazine] | ≥ 80 | ≥ 80 | ≥ 80 | 100 to 102 | ≥ 80 | ≥ 80 | ≥ 80 | ≥ 80
Cc1n[nH]c(=O)c(-c2c(F)cc(F)cc2F)c1-c1cccs1 [I.h.196, 6-methyl-5-thiophen-2-yl-4-(2,4,6-trifluorophenyl)-2H-pyridazin-3-one] | – | – | – | 249 to 251 | – | – | – | –
COc1cc(F)c(-c2c(OC)nnc(C)c2-c2cccs2)c(F)c1 [I.h.254, 4-(2,6-difluoro-4-methoxyphenyl)-3-methoxy-6-methyl-5-thiophen-2-yl-pyridazine] | – | – | – | 130 to 133 | – | – | – | –
